From ChEMBL document CHEMBL6134895, “Strategic Design and Optimization of Umifenovir Analogues: Balancing Antiviral Efficacy and hERG Toxicity against SARS-CoV-2” (J Med Chem, 2025)
Activity calls are given as the source filed them. No cut-off for these calls is given here.

Legend:
[1] = system: SARS-CoV-2; test: (§1) Antiviral activity against SARS CoV-2 Wuhan infected in African green monkey Vero E6 cells assessed as inhibition of viral replication pretreated for 15 mins followed by compound removal and induction of viral infection for 1 hr and subsequent removal of inoculum and further addition of media containing compound measured after 48 hrs by RT-qPCR analysis; format: functional, organism-based; details: Severe acute respiratory syndrome coronavirus 2, time 48.25 hrs
[2] = system: SARS-CoV-2; test: as §1, with “virus inactivation at 10 uM” for “inhibition of viral replication”, “analysis relative to control” for “analysis”; format: functional
[3] = system: SARS-CoV-2; test: as §1, with “24” for “48”, “cell-based ELISA” for “RT-qPCR analysis”; format: functional, organism-based; details: for IC50: Severe acute respiratory syndrome coronavirus 2, Wuhan, Vero C1008; for inhibition: Severe acute respiratory syndrome coronavirus 2, time 24.25 hrs
[4] = system: Vero C1008; test: Cytotoxicity against African green monkey Vero E6 cells assessed as cell viability at 5 uM incubated for 48 hrs by MTT assay; format: toxicity, cell-based; details: chlorocebus sabaeus, vero c1008, 48 h, 5 µM
[5] = target: Voltage-gated inwardly rectifying potassium channel KCNH2 (Homo sapiens, UniProt Q12809); test: Inhibition of hERG extracted from membrane (unknown origin) incubated for 4 hrs by fluorescence polarization assay; format: toxicity, cell membranes
Voltage-gated inwardly rectifying potassium channel KCNH2, sequence (Q12809 whole entry): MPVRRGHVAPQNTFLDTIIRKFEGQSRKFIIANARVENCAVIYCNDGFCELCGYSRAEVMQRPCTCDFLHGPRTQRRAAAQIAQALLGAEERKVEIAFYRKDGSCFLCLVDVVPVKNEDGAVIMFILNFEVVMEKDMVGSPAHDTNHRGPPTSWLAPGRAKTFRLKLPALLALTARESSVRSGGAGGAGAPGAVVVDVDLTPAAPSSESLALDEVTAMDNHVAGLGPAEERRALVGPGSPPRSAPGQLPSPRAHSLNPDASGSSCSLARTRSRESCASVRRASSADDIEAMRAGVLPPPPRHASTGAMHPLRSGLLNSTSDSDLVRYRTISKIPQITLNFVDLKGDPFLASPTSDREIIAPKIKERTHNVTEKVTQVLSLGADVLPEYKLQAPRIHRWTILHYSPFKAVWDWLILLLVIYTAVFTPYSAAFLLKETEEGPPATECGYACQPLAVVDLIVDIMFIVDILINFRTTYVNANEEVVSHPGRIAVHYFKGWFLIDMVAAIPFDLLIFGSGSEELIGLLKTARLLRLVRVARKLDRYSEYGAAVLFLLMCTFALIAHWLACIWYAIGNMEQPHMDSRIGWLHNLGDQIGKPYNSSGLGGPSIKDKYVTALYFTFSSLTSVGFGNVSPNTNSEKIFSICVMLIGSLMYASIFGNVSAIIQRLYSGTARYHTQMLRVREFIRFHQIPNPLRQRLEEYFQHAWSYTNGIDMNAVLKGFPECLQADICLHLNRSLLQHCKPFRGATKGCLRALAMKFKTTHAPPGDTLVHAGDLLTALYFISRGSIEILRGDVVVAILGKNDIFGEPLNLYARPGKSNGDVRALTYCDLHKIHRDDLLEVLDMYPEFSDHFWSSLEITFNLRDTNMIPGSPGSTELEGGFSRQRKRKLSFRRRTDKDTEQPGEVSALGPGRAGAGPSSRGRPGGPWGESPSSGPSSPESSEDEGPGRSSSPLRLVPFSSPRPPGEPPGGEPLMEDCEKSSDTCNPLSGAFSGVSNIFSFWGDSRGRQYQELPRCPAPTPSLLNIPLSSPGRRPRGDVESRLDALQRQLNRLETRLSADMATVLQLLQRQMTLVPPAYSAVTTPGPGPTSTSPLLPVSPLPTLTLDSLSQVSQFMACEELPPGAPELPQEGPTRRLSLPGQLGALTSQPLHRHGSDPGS

[6] = system: SARS-CoV-2; test: as §1, with “virus inactivation at 5 uM” for “inhibition of viral replication”, “analysis relative to control” for “analysis”; format: functional, Severe acute respiratory syndrome coronavirus 2; details: time 48.25 hrs
[7] = system: SARS-CoV-2; test: as §1, with “virus inactivation at 1 uM” for “inhibition of viral replication”, “analysis relative to control” for “analysis”; format: functional, Severe acute respiratory syndrome coronavirus 2; details: time 48.25 hrs
[8] = Severe acute respiratory syndrome coronavirus 2, time 48.25 hrs

Row | SMILES | inhibition [1] | Activity [2, 8] | IC50 [3] [µM] | Activity [4] | other results
1 | CCOC(=O)c1c(CSc2ccccc2OC(F)(F)F)n(C)c2cc(Br)c(O)c(CN(C)C)c12 | Not active; No Significant Effect | Not active; No Significant Effect Observed |  |  | 
2 | CCOC(=O)c1c(CSc2ccccc2C(F)(F)F)n(C)c2cc(Br)c(O)cc12 | Not active; No Significant Effect | Not active; No Significant Effect Observed |  |  | 
3 | CC(C)N1CCN(C(=O)c2c(CSc3ccccc3)n(C)c3cc(Br)c(O)cc23)CC1 |  |  | 3.05 | Non-toxic | IC50 [5]: 1.19 µM
4 | CCOC(=O)c1c(CSc2ccc(C)cc2C)n(Cc2ccc(-c3ccccc3)cc2)c2cc(Br)c(O)cc12 | Not active; No Significant Effect | Not active; No Significant Effect Observed |  | Non-toxic | 
5 | CCC(CC)COC(=O)[C@H](C)N[P@](=O)(OC[C@H]1O[C@@](C#N)(c2ccc3c(N)ncnn23)[C@H](O)[C@@H]1O)Oc1ccccc1 |  |  | 0.76 |  | 
6 | Cn1c(CSc2ccccc2)c(C(=O)N2CCC(N3CCOCC3)CC2)c2cc(O)c(Br)cc21 |  |  | 3.1 | Non-toxic | IC50 [5]: 13 µM
7 | Cn1c(CSc2ccc(F)cc2)c(C(=O)NC(C)(C)C)c2cc(O)c(Br)cc21 |  |  |  |  | inhibition [3]: inactive
8 | CCOC(=O)c1c(CSc2ccc(F)cc2F)n(C)c2cc(Br)c(O)cc12 | inactive | Not active; No Significant Effect Observed |  |  | inhibition [3]: inactive
9 | CC(C)N1CCC(NC(=O)c2c(CSc3ccccc3)n(C)c3cc(Br)c(O)cc23)CC1 |  |  | 6.6 | Non-toxic | IC50 [5]: 7.09 µM
10 | CCOC(=O)c1c(CSc2ccccc2OC)n(C)c2cc(Br)c(O)c(CN(C)C)c12 | Not active; No Significant Effect | Not active; No Significant Effect Observed |  |  | 
11 | CCOC(=O)c1c(CSc2c(C)cc(C)cc2C)n(Cc2cccc3ccccc23)c2cc(Br)c(O)cc12 |  | Not active; No Significant Effect Observed |  | Non-toxic | inhibition [3]: inactive
12 | CCOC(=O)c1c(CSc2ccc(C)cc2C)n(Cc2ccc(Cl)cc2)c2cc(Br)c(O)cc12 | Not active; No Significant Effect | Not active; No Significant Effect Observed |  |  | 
13 | CCOC(=O)c1c(CSc2c(C)cc(C)cc2C)n(C)c2cc(Br)c(O)cc12 |  | Not determined; No Significant Effect Observed | 8.75 | Non-toxic | 
14 | CCOC(=O)c1c(CSc2ccccc2OC)n(C)c2cc(Br)c(O)cc12 | Not active; No Significant Effect | Not active; No Significant Effect Observed |  |  | 
15 | CCOC(=O)c1c(CSc2ccc(C)cc2C)n(Cc2ccc(C(C)(C)C)cc2)c2cc(Br)c(O)cc12 | Not active; No Significant Effect | Not active; No Significant Effect Observed |  | Non-toxic | 
16 | CCOC(=O)c1c(CSc2ccc(C)cc2C)n(Cc2ccc(C)cc2)c2cc(Br)c(O)cc12 |  |  | 2.1 | Non-toxic | Activity [6]: >99%; IC50 [5]: > 30 µM
17 | CCOC(=O)c1c(CSc2ccccc2C(F)(F)F)n(C)c2cc(Br)c(O)c(CN(C)C)c12 | Not active; No Significant Effect | Not active; No Significant Effect Observed |  |  | 
18 | Cn1c(CSc2ccc(F)cc2F)c(C(=O)NC(C)(C)C)c2cc(O)c(Br)cc21 |  |  | 4.6 | Non-toxic | 
19 | Cn1c(CSc2ccc(F)cc2)c(C(=O)Nc2cc[nH]n2)c2cc(O)c(Br)cc21 |  |  | 2.3 | Non-toxic | IC50 [5]: > 30 µM
20 | CCOC(=O)c1c(CSc2ccc(F)cc2)n(C)c2cc(Br)c(O)c(CN(C)C)c12 | Not active; No Significant Effect |  |  | Non-toxic | 

Row | SMILES | inhibition [1] | Activity [2, 8] | IC50 [3] [µM] | Activity [4] | other results
21 | CCOC(=O)c1c(CSc2ccc(C)cc2C)n(Cc2ccc(C#N)cc2)c2cc(Br)c(O)cc12 | Not active; No Significant Effect | Not active; No Significant Effect Observed |  | Non-toxic | 
22 | Cc1ccc(Cn2c(CSc3c(C)cc(C)cc3C)c(C(=O)NC3CCN(C)CC3)c3cc(O)c(Br)cc32)cc1 |  |  |  | Non-toxic | 
23 | CCOC(=O)c1c(CSc2c(C)cc(C)cc2C)n(Cc2ccc(F)cc2)c2cc(Br)c(O)cc12 |  |  | 1.3 | Non-toxic | Activity [6]: >95%
24 | CCOC(=O)c1c(CSc2c(C)cc(C)cc2C)n(C)c2cc(Br)c(O)c(CN(C)C)c12 | Not active; No Significant Effect | Not determined; No Significant Effect Observed |  | Non-toxic | 
25 | CC(C)N1CCC(NC(=O)c2c(CSc3ccc(F)cc3)n(C)c3cc(Br)c(O)cc23)CC1 |  |  |  |  | inhibition [3]: inactive
26 | CCOC(=O)c1c(CSc2ccccc2)n(Cc2ccc(F)cc2)c2cc(Br)c(O)cc12 |  |  | 1.1 | Non-toxic | Activity [6]: >99%; IC50 [5]: > 30 µM
27 | CN1CCC(NC(=O)c2c(CSc3ccc(F)cc3)n(C)c3cc(Br)c(O)cc23)CC1 |  |  | 3.8 | Non-toxic | 
28 | Cn1cc(NC(=O)c2c(CSc3ccccc3)n(C)c3cc(Br)c(O)cc23)cn1 |  |  | 1.5 | Non-toxic | 
29 | CCOC(=O)c1c(CSc2ccc(F)cc2C)n(Cc2cccc3ccccc23)c2cc(Br)c(O)cc12 |  | Not active; No Significant Effect Observed |  | Non-toxic | inhibition [3]: inactive
30 | CC(C)N1CCN(C(=O)c2c(CSc3ccc(F)cc3)n(C)c3cc(Br)c(O)cc23)CC1 |  |  | 1.7 | Non-toxic | 
31 | CCOC(=O)c1c(CSc2ccc(F)cc2)n(C)c2cc(Br)c(O)cc12 |  |  |  | Non-toxic | inhibition [3]: inactive; Activity [7]: <90%; Activity ([2]; time 48.25 hrs): 99.9%
32 | CCOC(=O)c1c(CSc2ccc(F)cc2)n(Cc2ccc(F)cc2)c2cc(Br)c(O)cc12 | Not active; No Significant Effect |  |  | Non-toxic | Activity [6]: >95%
33 | CCOC(=O)c1c(CSc2ccccc2)n(C)c2cc(Br)c(O)cc12 |  |  | 8.4 | Non-toxic | Activity [7]: <90%
34 | CCOC(=O)c1c(CSc2ccccc2)[nH]c2cc(Br)c(O)cc12 | Not active; No Significant Effect | Not active; No Significant Effect Observed |  | Non-toxic | 
35 | CCOC(=O)c1c(CSc2ccc(F)cc2)n(Cc2ccc(C)cc2)c2cc(Br)c(O)cc12 | Not active; No Significant Effect | Not active; No Significant Effect Observed |  | Non-toxic | 
36 | CCOC(=O)c1c(CSc2ccccc2)n(Cc2cccc3ccccc23)c2cc(Br)c(O)cc12 |  | Not active; No Significant Effect Observed |  |  | inhibition [3]: inactive
37 | CCOC(=O)c1c(CSc2ccc(C)cc2C)n(Cc2ccc(F)cc2)c2cc(Br)c(O)cc12 | Not active; No Significant Effect | Not active; No Significant Effect Observed |  | Non-toxic | 
38 | CCOC(=O)c1c(CSc2ccccc2OC(F)(F)F)n(C)c2cc(Br)c(O)cc12 | Not active; No Significant Effect | Not active; No Significant Effect Observed |  |  | 
39 | CCOC(=O)c1c(CSc2c(C)cc(C)cc2C)n(Cc2ccc(C)cc2)c2cc(Br)c(O)c(CN(C)C)c12 |  | Not determined; No Significant Effect Observed | 10 | Non-toxic | IC50 [5]: 3.85 µM
